Assay results from ChEMBL document CHEMBL1201862, “PubChem BioAssay data set” (2004).
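Assay format: 96-well plates, 48-hour exposure. GI50 is the concentration that inhibits growth by half.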 Calls of active or inactive are those of the source. Rule as the data show it: active = GI50 up to about 1.1 µM and inactive = higher.

Legend:
Assay in all cases: inhibition of tumour cell growth, NCI panel, 48 h
HCT-116 = tested on: HCT-116
RPMI-8226 = tested on: RPMI-8226
SK-MEL-5 = tested on: SK-MEL-5
HT-29 = tested on: HT-29
A549 = tested on: A549
HCC 2998 = tested on: HCC 2998
TK-10 = tested on: TK-10
M14 = tested on: M14
SN12C = tested on: SN12C
SK-MEL-2 = tested on: SK-MEL-2
LOX IMVI = tested on: LOX IMVI
M19-MEL = tested on: M19-MEL
Malme-3M = tested on: Malme-3M
DMS-114 = tested on: DMS-114
UACC-62 = tested on: UACC-62
OVCAR-8 = tested on: OVCAR-8
MOLT-4 = tested on: MOLT-4
KM12 = tested on: KM12
SW-620 = tested on: SW-620
NCI-H460 = tested on: NCI-H460
SNB-75 = tested on: SNB-75
SF-268 = tested on: SF-268
COLO 205 = tested on: COLO 205
DLD-1 = tested on: DLD-1
SF-295 = tested on: SF-295
U-251 = tested on: U-251
UACC-257 = tested on: UACC-257
OVCAR-4 = tested on: OVCAR-4
HL-60 = tested on: HL-60
NCI-H23 = tested on: NCI-H23
786-0 = tested on: 786-0
SNB-19 = tested on: SNB-19
SNB-78 = tested on: SNB-78
SK-MEL-28 = tested on: SK-MEL-28
ACHN = tested on: ACHN
OVCAR-5 = tested on: OVCAR-5
HOP-92 = tested on: HOP-92
EKVX = tested on: EKVX
CCRF-CEM = tested on: CCRF-CEM
HOP-18 = tested on: HOP-18
UO-31 = tested on: UO-31
LXFL 529 = tested on: LXFL 529
OVCAR-3 = tested on: OVCAR-3
RXF 393 = tested on: RXF 393
IGROV-1 = tested on: IGROV-1
KM-20L2 = tested on: KM-20L2
XF498 = tested on: XF498
HOP-62 = tested on: HOP-62
HCT-15 = tested on: HCT-15
DMS-273 = tested on: DMS-273
SK-OV-3 = tested on: SK-OV-3
K562 = tested on: K562
NCI-H226 = tested on: NCI-H226
NCI-H522 = tested on: NCI-H522
A498 = tested on: A498
SR = tested on: SR
SF-539 = tested on: SF-539
CAKI-1 = tested on: CAKI-1

Measured: GI50

NC1=NN(c2ccccc2)C(=O)C1/C(=N\NC(=O)c1cc2ccccc2cc1O)C(=O)Nc1cccc(C(F)(F)F)c1 (stereo not given)
inactive: HCT-116 25.4 µM | RPMI-8226 39.7 µM | SK-MEL-5 23.1 µM | HT-29 41 µM | A549 37.2 µM | HCC 2998 46.2 µM | TK-10 > 100 µM | M14 28.7 µM | SN12C 46.6 µM | SK-MEL-2 22.4 µM | LOX IMVI 25.9 µM | M19-MEL 35.2 µM | Malme-3M 37 µM | DMS-114 24.8 µM | UACC-62 35.2 µM | OVCAR-8 24.1 µM | MOLT-4 16.3 µM | KM12 37.3 µM | SW-620 34.7 µM | NCI-H460 27.1 µM | SNB-75 > 100 µM | SF-268 23.5 µM | COLO 205 35.7 µM | DLD-1 36.6 µM | SF-295 49.1 µM | U-251 37.7 µM | UACC-257 26.4 µM | OVCAR-4 42.5 µM | HL-60 6.65 µM | NCI-H23 29.2 µM | 786-0 38.1 µM | SNB-19 75 µM | SNB-78 44 µM | SK-MEL-28 57.7 µM | ACHN 30.1 µM | OVCAR-5 26.2 µM | HOP-92 33.2 µM | EKVX 35.6 µM | CCRF-CEM 7.06 µM | HOP-18 21.2 µM | UO-31 32.8 µM | LXFL 529 39.3 µM | OVCAR-3 25.7 µM | RXF 393 55.1 µM | IGROV-1 27.8 µM | KM-20L2 32.6 µM | XF498 64.9 µM | HOP-62 39.4 µM

CCOc1ccc(/C=C(\Cl)c2ccc(OC)cc2)cc1
> 100 µM: HCT-15
inactive: HCT-116 > 100 µM | RPMI-8226 > 100 µM | SK-MEL-5 > 100 µM | HT-29 > 100 µM | A549 > 100 µM | HCC 2998 > 100 µM | DMS-273 > 100 µM | SK-OV-3 > 100 µM | M14 > 100 µM | SN12C > 100 µM | K562 > 100 µM | M19-MEL > 100 µM | Malme-3M > 100 µM | DMS-114 78.7 µM | UACC-62 > 100 µM | OVCAR-8 > 100 µM | MOLT-4 > 100 µM | NCI-H226 > 100 µM | SW-620 > 100 µM | SNB-75 > 100 µM | SF-268 > 100 µM | COLO 205 > 100 µM | DLD-1 > 100 µM | NCI-H522 > 100 µM | SF-295 > 100 µM | U-251 > 100 µM | UACC-257 > 100 µM | OVCAR-4 > 100 µM | HL-60 47.6 µM | NCI-H23 > 100 µM | 786-0 > 100 µM | SNB-19 > 100 µM | SNB-78 > 100 µM | A498 25.2 µM | SK-MEL-28 > 100 µM | ACHN > 100 µM | HOP-92 > 100 µM | EKVX > 100 µM | CCRF-CEM > 100 µM | HOP-18 > 100 µM | UO-31 > 100 µM | LXFL 529 > 100 µM | RXF 393 > 100 µM | IGROV-1 > 100 µM | SR > 100 µM | KM-20L2 > 100 µM | SF-539 > 100 µM | XF498 > 100 µM | HOP-62 > 100 µM

NC(=S)NNC(=O)/C(=C/c1ccc(/C=C(\NC(=O)c2ccccc2)C(=O)NNC(N)=S)cc1)NC(=O)c1ccccc1
> 100 µM: HCT-15
inactive: HCT-116 75 µM | RPMI-8226 32.1 µM | SK-MEL-5 66.2 µM | HT-29 > 100 µM | A549 > 100 µM | CAKI-1 > 100 µM | HCC 2998 > 100 µM | DMS-273 > 100 µM | SK-OV-3 > 100 µM | TK-10 > 100 µM | M14 > 100 µM | SN12C > 79.6 µM | K562 19.1 µM | SK-MEL-2 > 100 µM | LOX IMVI 34.1 µM | M19-MEL 72.8 µM | Malme-3M > 100 µM | DMS-114 > 71.8 µM | UACC-62 > 100 µM | OVCAR-8 64 µM | MOLT-4 13.8 µM | NCI-H226 > 100 µM | KM12 > 100 µM | SW-620 > 81.8 µM | NCI-H460 > 100 µM | SNB-75 30.4 µM | SF-268 > 100 µM | COLO 205 > 100 µM | DLD-1 > 63.7 µM | NCI-H522 25.4 µM | SF-295 > 100 µM | U-251 85.7 µM | UACC-257 > 100 µM | OVCAR-4 97.5 µM | HL-60 15.6 µM | NCI-H23 > 100 µM | 786-0 > 100 µM | SNB-19 > 100 µM | SNB-78 53.3 µM | A498 > 100 µM | SK-MEL-28 > 100 µM | ACHN > 100 µM | OVCAR-5 > 100 µM | HOP-92 > 100 µM | EKVX > 100 µM | CCRF-CEM 34.3 µM | HOP-18 > 100 µM | UO-31 > 100 µM | LXFL 529 80 µM | OVCAR-3 > 100 µM | RXF 393 > 75 µM | IGROV-1 > 79.3 µM | SR 26.1 µM | KM-20L2 > 100 µM | SF-539 > 100 µM | XF498 70 µM | HOP-62 > 100 µM

O=C(c1ccccc1)c1nc2ccc(Cl)cc2c2c1CCCO2
> 100 µM: HCT-15
inactive: HCT-116 > 100 µM | RPMI-8226 > 100 µM | HT-29 > 100 µM | CAKI-1 > 100 µM | HCC 2998 > 100 µM | DMS-273 > 100 µM | TK-10 > 100 µM | M14 > 100 µM | SN12C > 100 µM | K562 > 100 µM | SK-MEL-2 > 100 µM | LOX IMVI > 100 µM | M19-MEL > 100 µM | Malme-3M > 100 µM | DMS-114 > 100 µM | UACC-62 > 100 µM | OVCAR-8 > 100 µM | MOLT-4 > 100 µM | NCI-H226 > 100 µM | KM12 > 100 µM | SW-620 > 100 µM | NCI-H460 > 100 µM | SF-268 > 100 µM | COLO 205 > 100 µM | NCI-H522 > 100 µM | SF-295 50 µM | U-251 > 100 µM | OVCAR-4 > 100 µM | NCI-H23 72.8 µM | SNB-19 > 100 µM | SNB-78 > 100 µM | SK-MEL-28 33.7 µM | ACHN > 100 µM | OVCAR-5 > 100 µM | EKVX > 100 µM | HOP-18 > 100 µM | UO-31 > 100 µM | LXFL 529 > 100 µM | OVCAR-3 > 100 µM | RXF 393 56.2 µM | IGROV-1 > 100 µM | SR > 100 µM | KM-20L2 > 100 µM | XF498 65.9 µM | HOP-62 > 100 µM

COC(=O)C(CC(=O)Nc1ccc(C)cc1)C(=O)C(=O)Nc1ccccc1C(C)C (stereo not given)
inactive: HCT-116 > 100 µM | RPMI-8226 62.4 µM | SK-MEL-5 > 100 µM | HT-29 > 100 µM | A549 > 100 µM | CAKI-1 > 100 µM | HCC 2998 > 100 µM | DMS-273 > 100 µM | SK-OV-3 > 100 µM | TK-10 > 100 µM | M14 > 100 µM | SN12C > 100 µM | K562 > 100 µM | SK-MEL-2 > 100 µM | LOX IMVI > 100 µM | M19-MEL > 100 µM | Malme-3M > 100 µM | DMS-114 > 100 µM | UACC-62 > 100 µM | OVCAR-8 > 100 µM | MOLT-4 > 100 µM | NCI-H226 > 100 µM | KM12 > 100 µM | SW-620 22.2 µM | NCI-H460 > 100 µM | SNB-75 > 100 µM | SF-268 > 100 µM | COLO 205 89.7 µM | DLD-1 > 100 µM | NCI-H522 > 100 µM | SF-295 > 100 µM | U-251 > 100 µM | UACC-257 > 100 µM | OVCAR-4 > 100 µM | HL-60 > 100 µM | NCI-H23 > 100 µM | 786-0 > 100 µM | SNB-19 > 100 µM | SNB-78 > 100 µM | A498 > 100 µM | SK-MEL-28 > 100 µM | ACHN > 100 µM | OVCAR-5 > 100 µM | HOP-92 > 100 µM | EKVX > 100 µM | CCRF-CEM > 100 µM | HOP-18 > 100 µM | UO-31 > 100 µM | LXFL 529 > 100 µM | OVCAR-3 > 100 µM | RXF 393 > 100 µM | IGROV-1 > 100 µM | SR > 100 µM | KM-20L2 > 100 µM | SF-539 > 100 µM | XF498 > 100 µM | HOP-62 > 100 µM
> 100 µM: HCT-15
